# Experimental data published in article PMC10299089, “Heterologous expression of genes from a cyanobacterial endosymbiont highlights substrate exchanges with its diatom host” (PNAS Nexus, 2023).
# T1: RintHH_11820 (NatB), SBP of N-I transporter (Richelia intracellularis, UniProt M1WZ73)
# T1 construct: mature protein, signal peptide removed, N-terminal His tag, E. coli, nickel column
# T1 sequence (M1WZ73 24-438): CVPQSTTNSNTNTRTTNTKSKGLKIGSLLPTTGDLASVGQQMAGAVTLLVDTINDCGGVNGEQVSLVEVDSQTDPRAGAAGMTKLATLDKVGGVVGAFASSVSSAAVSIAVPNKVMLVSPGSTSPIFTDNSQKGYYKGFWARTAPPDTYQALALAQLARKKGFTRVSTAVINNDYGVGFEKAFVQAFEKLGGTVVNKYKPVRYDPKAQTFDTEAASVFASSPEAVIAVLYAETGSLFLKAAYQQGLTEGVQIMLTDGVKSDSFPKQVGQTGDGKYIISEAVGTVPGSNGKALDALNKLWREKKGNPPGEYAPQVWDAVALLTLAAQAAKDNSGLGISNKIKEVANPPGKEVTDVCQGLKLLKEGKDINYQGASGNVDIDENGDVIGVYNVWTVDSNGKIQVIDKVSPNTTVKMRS
# T2: RintHH_17430 (GlsR), periplasmic SBP (Richelia intracellularis, UniProt M1X141)
# T2 construct: mature protein, signal peptidase II signal peptide removed, N-terminal Cys fused to Strep-tag II; pET28b(+), E. coli, StrepTrap
# T2 sequence (M1X141 41-442): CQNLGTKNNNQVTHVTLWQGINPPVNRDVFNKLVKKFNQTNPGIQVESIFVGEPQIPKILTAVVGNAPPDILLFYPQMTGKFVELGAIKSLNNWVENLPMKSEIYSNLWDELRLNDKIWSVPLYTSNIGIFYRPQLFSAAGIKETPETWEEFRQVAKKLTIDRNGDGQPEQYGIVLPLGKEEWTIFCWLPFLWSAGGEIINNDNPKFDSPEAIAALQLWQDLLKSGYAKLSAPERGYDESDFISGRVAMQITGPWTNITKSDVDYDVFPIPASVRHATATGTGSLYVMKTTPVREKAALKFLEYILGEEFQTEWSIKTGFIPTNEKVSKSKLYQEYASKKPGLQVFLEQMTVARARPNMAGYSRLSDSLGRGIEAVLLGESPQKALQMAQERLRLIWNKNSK
# T3: RintHH_12770 (NatF), SBP of N-II transporter (Richelia intracellularis, UniProt M1WZB0)
# T3 construct: mature protein, signal peptide removed, N-terminal His tag, E. coli, nickel column
# T3 sequence (M1WZB0 22-348 limits assumed): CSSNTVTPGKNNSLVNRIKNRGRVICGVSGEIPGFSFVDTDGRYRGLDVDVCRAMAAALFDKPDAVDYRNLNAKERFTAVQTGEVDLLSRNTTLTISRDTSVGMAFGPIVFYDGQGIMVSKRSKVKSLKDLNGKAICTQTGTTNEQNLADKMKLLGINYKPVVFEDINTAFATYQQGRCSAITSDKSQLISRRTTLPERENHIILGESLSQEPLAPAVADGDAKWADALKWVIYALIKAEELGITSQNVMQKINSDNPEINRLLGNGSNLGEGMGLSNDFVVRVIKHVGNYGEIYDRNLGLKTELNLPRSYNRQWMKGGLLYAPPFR
# Legend:
# [1] = target: T1, RintHH_11820 (NatB), SBP of N-I transporter; assay: intrinsic Trp fluorescence quenching; type: binding; conditions: excitation 280 nm, emission ~340 nm; ligand ~116 µM
# [2] = target: T2, RintHH_17430 (GlsR), periplasmic SBP; assay: intrinsic Trp fluorescence quenching; type: binding; conditions: 0.02 mM protein, excitation 280 nm, emission ~340 nm
# [3] = target: T3, RintHH_12770 (NatF), SBP of N-II transporter; assay: intrinsic Trp fluorescence quenching; type: binding; conditions: excitation 280 nm, emission ~340 nm; ligand ~7 µM
# [4] = substrate: OC[C@H]1O[C@@](CO)(O[C@H]2O[C@H](CO)[C@@H](O)[C@H](O)[C@H]2O)[C@@H](O)[C@@H]1O; assay: glucose production by HPLC (Dionex), E. coli cell-free extract; type: biochemical, Richelia intracellularis; conditions: pH 7, 30 °C, 120 mM potassium phosphate, crude extract
Molecule,% quenching [1],further results
NCC(=O)O [Gly],"substantial quenching was produced by the neutral amino acids (L-Pro, L-Ala, L-Phe, Gly, and L-Leu)",
OC[C@H]1O[C@@](CO)(O[C@H]2O[C@H](CO)[C@@H](O)[C@H](O)[C@H]2O)[C@@H](O)[C@@H]1O [sucrose],,% quenching at 1 μM [2]: ~ 22.5%
C[C@H](N)C(=O)O [L-Ala],"substantial quenching was produced by the neutral amino acids (L-Pro, L-Ala, L-Phe, Gly, and L-Leu)",
CC(C)C[C@H](N)C(=O)O [L-Leu],"substantial quenching was produced by the neutral amino acids (L-Pro, L-Ala, L-Phe, Gly, and L-Leu)",
O=C(O)[C@@H]1CCCN1 [L-Pro],"substantial quenching was produced by the neutral amino acids (L-Pro, L-Ala, L-Phe, Gly, and L-Leu)",
N[C@@H](CCC(=O)O)C(=O)O [L-Glu],,% quenching [3]: substantial quenching was only seen with L-Glu
"RintHH_3860 (InvB), neutral invertase (Richelia intracellularis HH01) (protein, synthetic gene in pET28b(+), expressed in E. coli; crude cell-free extract (purification unsuccessful)) MQPHKVILKDVEKDAWDTLEKTIIYYQGNPIGTVAALDSTANTLNYDQCFVRDFVVSALLFLIKGRTEIVRNFLKQTLKLQPKKKQLGTYKPGRGLMPASFKVTFNNGQEELEADFGENAIARVTPVDSSLWWIVLLRAYVVATKDYSLAYQDDFQQGIRLILDLCLATRFDMYPTLLVPDGACMIDRRLGIHGHPLEIQSLYYAALRAARELLICQGNEELVFAIDNRLPVLAAHIRKHYWIDLHRLNDIYRYRGEEYGKDAVNQFNIYVDSIPYSELDRWLPKGGGYLAGNVGPSQMDTRFFTLGNLMAVIIDLTTQEQSQAIMTLIEQRWDDLVGDMPMKITFPALENEEYKYVTGCDPKNIPWSYHNAGNWPVLMWMLAAACVKTNHRELMQRALTIAQERLKNDEWPEYYDGKQGRLIGRQSRKYQTWTIVGFLLAKEILAQPGSLSLISFDPFITKQVSQACELKFDYFDS",,Km [4]: 25.7 mM
